For one data set, the target named is T1, Androgen receptor (AR) (Homo sapiens, UniProt P10275, T878A).
T1 construct: 5.5×10^5 LNCap cells were injected into each well of a 6-well plate; endogenous in cells; host or cells: LNCaP
T1 sequence (P10275 1-920 T878A): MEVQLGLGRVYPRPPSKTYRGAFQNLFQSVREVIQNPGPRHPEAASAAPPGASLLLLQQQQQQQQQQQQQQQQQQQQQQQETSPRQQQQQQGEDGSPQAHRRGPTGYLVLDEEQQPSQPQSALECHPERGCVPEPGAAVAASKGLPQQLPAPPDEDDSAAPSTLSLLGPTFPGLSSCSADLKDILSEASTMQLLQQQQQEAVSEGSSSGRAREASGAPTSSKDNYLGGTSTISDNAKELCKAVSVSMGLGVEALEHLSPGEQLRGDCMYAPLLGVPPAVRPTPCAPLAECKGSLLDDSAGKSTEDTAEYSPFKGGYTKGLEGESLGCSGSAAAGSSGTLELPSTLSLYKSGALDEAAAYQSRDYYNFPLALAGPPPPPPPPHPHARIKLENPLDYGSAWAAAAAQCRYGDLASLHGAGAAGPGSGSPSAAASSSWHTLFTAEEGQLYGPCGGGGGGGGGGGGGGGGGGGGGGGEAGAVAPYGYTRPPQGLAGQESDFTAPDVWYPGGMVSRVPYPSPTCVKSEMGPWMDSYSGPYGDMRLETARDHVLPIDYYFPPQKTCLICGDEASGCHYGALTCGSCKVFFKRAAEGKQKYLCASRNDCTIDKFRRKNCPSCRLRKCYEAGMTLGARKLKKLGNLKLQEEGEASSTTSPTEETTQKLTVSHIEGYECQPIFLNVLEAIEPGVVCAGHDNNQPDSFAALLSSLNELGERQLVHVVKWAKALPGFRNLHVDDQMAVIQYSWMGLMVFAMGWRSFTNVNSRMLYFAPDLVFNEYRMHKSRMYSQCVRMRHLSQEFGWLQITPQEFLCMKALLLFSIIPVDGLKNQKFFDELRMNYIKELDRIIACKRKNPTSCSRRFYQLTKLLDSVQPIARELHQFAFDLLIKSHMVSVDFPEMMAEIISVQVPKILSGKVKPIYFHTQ
The data set is described as follows: Assessment of AR proteolytic activity (Western blotting of LNCap cell lysates). It is filed as cell-based. Conditions: 24 hours of treatment, Western blotting quantified with Image J. The essentials:
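LNCap cells seeded at 5.5×10^5 per well and treated with compound for 24 hours. Lysates prepared in RIPA buffer (pH 7.5, with protease inhibitors). AR protein levels assessed by Western blot with densitometric quantification.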
On the technique in general: In western blotting, separated proteins are transferred to a membrane and probed.

The subject of another data set is LNCaP cells. The data set is described as follows: Cytotoxicity assessment (Cell-titer-glo cell viability), LNCaP.
In data set [1] the test system is VCaP cells. The data set is described as follows: Cytotoxicity assessment (Cell-titer-glo cell viability), VCaP. As to conditions: read-out: VCaP (CC50); VCaP cells, 6 days of treatment, Cell-titer-glo, vs DMSO.
Data set [2] concerns VCaP cells.
[3] abbreviates: read-out: LNCAP (CC50), LNCaP cells, 6 days of treatment, Cell-titer-glo, vs DMSO.

As a reminder, the CC50 is the concentration that lowers cell viability or growth by half.

Read-outs that look alike come from different tables or passages of the source.

Protocol for LNCaP cells: In order to evaluate the androgen receptor (AR) cytotoxicity of the compounds according to the present invention, the following experiment was conducted. Specifically, 1.5×10^3 (LNCaP) or 4×10^3 (VCaP, 22RV1), respectively, of LNCaP, VCaP, and 22RV1 cells were injected into each well of a 96-well plate. The next day, each well was treated with the compound at a final concentration of 3 nM, 10 nM, 30 nM, 100 nM, 300 nM, 1 μM, 3 μM, and 10 μM. […] After 6 days of treatment, Cell-titer-glo (promega) was treated and reacted for 10 minutes, and cell viability was measured with a multimode plate reader (PerkinElmer, Inc.), and the change was quantified compared to when DMSO was treated.

Turning to `CC1(C)[C@H](NC(=O)c2ccc(N3CCN(C4CC5(CCN(C(=O)C6CN(c7ccc8nnn(C9CCC(=O)NC9=O)c(=O)c8c7)C6)CC5)C4)CC3)cc2)C(C)(C)[C@H]1Oc1ccc(C#N)c(Cl)c1` (stereo partly drawn) [Example 21, N-((1r,3r)-3-(3-chloro-4-cyanophenoxy)-2,2,4,4-tetramethylcyclobutyl)-4-(4-(7-(1-(3-(2,6-dioxopiperidin-3-yl)-4-oxo-3,4-dihydrobenzo[d][1,2,3]triazin-6-yl)azetidine-3-carbonyl)-7-azaspiro[3.5]nonan-2-yl)piperazin-1-yl)benzamide], the “Degradation (1 μM treated in LNCaP, % AR remaining)” value on Androgen receptor (AR) worked out at 21%. Besides, in the data set on LNCaP cells (setting [3]), the half-maximal cytotoxic concentration (CC50) worked out at 0.312 µM.

Turning to `CC1(C)C(NC(=O)c2ccc(-c3cnn(C4CCN(CC5CCN(c6ccc7nnn(C8CCC(=O)NC8=O)c(=O)c7c6)CC5)CC4)c3)nc2)C(C)(C)C1Oc1ccc(C#N)c(Cl)c1` (stereo not drawn) [Example 115, N-((1r,3r)-3-(3-chloro-4-cyanophenoxy)-2,2,4,4-tetramethylcyclobutyl)-6-(1-(1-((1-(3-(2,6-dioxopiperidin-3-yl)-4-oxo-3,4-dihydrobenzo[d][1,2,3]triazin-6-yl)piperidin-4-yl)methyl)piperidin-4-yl)-1H-pyrazol-4-yl)nicotinamide], the cytotoxic concentration (CC50) with VCaP cells [1] was 38 nM; in the data set on LNCaP cells (setting [3]) it was 0.182 µM.

`CC1(C)C(NC(=O)c2ccc(OCCOCCOCCOCCOCCOCCCCNC(=O)C3CCN(c4ccc5nnn(C6CCC(=O)NC6=O)c(=O)c5c4)CC3)cc2)C(C)(C)C1Oc1ccc(C#N)c(Cl)c1` (stereo not drawn) [Example 15, N-(1-(4-(((1r,3r)-3-(3-chloro-4-cyanophenoxy)-2,2,4,4-tetramethylcyclobutyl)carbamoyl)phenoxy)-3,6,9,12,15-pentaoxanonadecan-19-yl)-1-(3-(2,6-dioxopiperidin-3-yl)-4-oxo-3,4-dihydrobenzo[d][1,2,3]triazin-6-yl)piperidine-4-carboxamide]: the “Degradation (1 μM treated in LNCaP, % AR remaining)” value at Androgen receptor (AR) worked out at 13.6%. In addition, in the data set on LNCaP cells (setting [3]), the CC50 was found to be 1.31 µM.

For the compound `CC1(C)C(NC(=O)c2ccc(-n3cc(CC4CCN(c5ccc6nnn(C7CCC(=O)NC7=O)c(=O)c6c5)CC4)nn3)cc2)C(C)(C)C1Oc1ccc(C#N)c(Cl)c1` (stereo not drawn) [Example 103, N-((1r,3r)-3-(3-chloro-4-cyanophenoxy)-2,2,4,4-tetramethylcyclobutyl)-4-(4-((1-(3-(2,6-dioxopiperidin-3-yl)-4-oxo-3,4-dihydrobenzo[d][1,2,3]triazin-6-yl)piperidin-4-yl)methyl)-1H-1,2,3-triazol-1-yl)benzamide], the CC50 with VCaP cells [1] was found to be 12.3 nM; in the data set on LNCaP cells (setting [3]), 0.144 µM.

As for `CC1(C)C(NC(=O)c2ccc(C#CCC3CCN(CC4CCN(C(=O)C5CN(c6ccc7nnn(C8CCC(=O)NC8=O)c(=O)c7c6)C5)CC4)CC3)cc2)C(C)(C)C1Oc1ccc(C#N)c(Cl)c1` (stereo not drawn) [Example 117, N-((1r,3r)-3-(3-chloro-4-cyanophenoxy)-2,2,4,4-tetramethylcyclobutyl)-4-(3-(1-((1-(1-(3-(2,6-dioxopiperidin-3-yl)-4-oxo-3,4-dihydrobenzo[d][1,2,3]triazin-6-yl)azetidine-3-carbonyl)piperidin-4-yl)methyl)piperidin-4-yl)prop-1-yn-1-yl)benzamide], the 50% cytotoxic concentration (CC50) in the data set with VCaP cells [1] was found to be 13 nM; in the data set with LNCaP cells (setting [3]) it was 0.166 µM.

For the compound `CC1(C)[C@H](NC(=O)c2ccc(OCCOCCOCCOCCOCCOCCNc3cccc4nnn(C5CCC(=O)NC5=O)c(=O)c34)cc2)C(C)(C)[C@H]1Oc1ccc(C#N)c(Cl)c1` (stereo partly drawn) [Example 1, N-((1r,3r)-3-(3-chloro-4-cyanophenoxy)-2,2,4,4-tetramethylcyclobutyl)-4-((17-((3-(2,6-dioxopiperidin-3-yl)-4-oxo-3,4-dihydrobenzo[d][1,2,3]triazin-5-yl)amino)-3,6,9,12,15-pentaoxaheptadecyl)oxy)benzamide], the “Degradation (1 μM treated in LNCaP, % AR remaining)” value at Androgen receptor (AR) worked out at 72%. Also, in the data set with LNCaP cells (setting [3]), the cytotoxic concentration (CC50) came to 5.69 µM.

With `CC1(C)[C@H](NC(=O)c2ccc(N3CCN(C4CC5(CCN(C(=O)COc6ccc7nnn(C8CCC(=O)NC8=O)c(=O)c7c6)CC5)C4)CC3)cc2)C(C)(C)[C@H]1Oc1ccc(C#N)c(Cl)c1` (stereo partly drawn) [Example 18, N-((1r,3r)-3-(3-chloro-4-cyanophenoxy)-2,2,4,4-tetramethylcyclobutyl)-4-(4-(7-(2-((3-(2,6-dioxopiperidin-3-yl)-4-oxo-3,4-dihydrobenzo[d][1,2,3]triazin-6-yl)oxy)acetyl)-7-azaspiro[3.5]nonan-2-yl)piperazin-1-yl)benzamide], the “Degradation (1 μM treated in LNCaP, % AR remaining)” value on Androgen receptor (AR) stood at 23%. Besides, the CC50 in the data set with LNCaP cells (setting [3]) turned out to be 0.196 µM.

For the compound `CC1(C)[C@H](NC(=O)c2ccc(N3CCN(CC4CCN(C(=O)COc5ccc6nnn(C7CCC(=O)NC7=O)c(=O)c6c5)CC4)CC3)cc2)C(C)(C)[C@H]1Oc1ccc(C#N)c(Cl)c1` (stereo partly drawn) [Example 13, N-((1r,3r)-3-(3-chloro-4-cyanophenoxy)-2,2,4,4-tetramethylcyclobutyl)-4-(4-((1-(2-((3-(2,6-dioxopiperidin-3-yl)-4-oxo-3,4-dihydrobenzo[d][1,2,3]triazin-6-yl)oxy)acetyl)piperidin-4-yl)methyl)piperazin-1-yl)benzamide], the remaining activity at 1 µM at Androgen receptor (AR) (read-out: Degradation (1 μM treated in LNCaP, % AR remaining)) came out at 8.3%. For the same compound, the CC50 in the data set on LNCaP cells (Homo sapiens, LNCaP, 144 h, read-out: LNCAP (CC50, μM)) was 0.803 µM.

As for `CC1(C)C(NC(=O)c2ccc(C#CCC3CCN(CC4CCN(c5ccc6nnn(C7CCC(=O)NC7=O)c(=O)c6c5)CC4)CC3)cc2)C(C)(C)C1Oc1ccc(C#N)c(Cl)c1` (stereo not drawn) [Example 88, N-((1r,3r)-3-(3-chloro-4-cyanophenoxy)-2,2,4,4-tetramethylcyclobutyl)-4-(3-(1-((1-(3-(2,6-dioxopiperidin-3-yl)-4-oxo-3,4-dihydrobenzo[d][1,2,3]triazin-6-yl)piperidin-4-yl)methyl)piperidin-4-yl)prop-1-yn-1-yl)benzamide], the “Degradation (1 μM treated in LNCaP, % AR remaining)” value at Androgen receptor (AR) was found to be 14%. The compound also gave a CC50 in the data set with VCaP cells [2] of 14.5 nM.

On to `CC1(C)C(NC(=O)c2ccc(N3CCN(CC4(O)CCN(C(=O)C5CN(c6ccc7nnn(C8CCC(=O)NC8=O)c(=O)c7c6)C5)CC4)CC3)cc2)C(C)(C)C1Oc1ccc(C#N)c(Cl)c1` (stereo not drawn) [Example 56, N-((1r,3r)-3-(3-chloro-4-cyanophenoxy)-2,2,4,4-tetramethylcyclobutyl)-4-(4-((1-(1-(3-(2,6-dioxopiperidin-3-yl)-4-oxo-3,4-dihydrobenzo[d][1,2,3]triazin-6-yl)azetidine-3-carbonyl)-4-hydroxypiperidin-4-yl)methyl)piperazin-1-yl)benzamide], for which the “Degradation (1 μM treated in LNCaP, % AR remaining)” value at Androgen receptor (AR) was 21.3%. This compound also came in with a CC50 with VCaP cells [2] of 36.1 nM.

For `CC1(C)C(NC(=O)c2ccc(OCCOCCOCCOCCOCCOCCCCNC(=O)C3CN(c4ccc5nnn(C6CCC(=O)NC6=O)c(=O)c5c4)C3)cc2)C(C)(C)C1Oc1ccc(C#N)c(Cl)c1` (stereo not drawn) [Example 16, N-(1-(4-(((1r,3r)-3-(3-chloro-4-cyanophenoxy)-2,2,4,4-tetramethylcyclobutyl)carbamoyl)phenoxy)-3,6,9,12,15-pentaoxanonadecan-19-yl)-1-(3-(2,6-dioxopiperidin-3-yl)-4-oxo-3,4-dihydrobenzo[d][1,2,3]triazin-6-yl)azetidine-3-carboxamide], the “Degradation (1 μM treated in LNCaP, % AR remaining)” value on Androgen receptor (AR) stood at 12.6%. The CC50 in the data set on LNCaP cells (setting [3]) was determined as 1.95 µM.

For the compound `CC1(C)C(NC(=O)c2ccc(C#CCC3CCN(C(=O)C4CN(c5ccc6nnn(C7CCC(=O)NC7=O)c(=O)c6c5)C4)CC3)cc2)C(C)(C)C1Oc1ccc(C#N)c(Cl)c1` (stereo not drawn) [Example 87, N-((1r,3r)-3-(3-chloro-4-cyanophenoxy)-2,2,4,4-tetramethylcyclobutyl)-4-(3-(1-(1-(3-(2,6-dioxopiperidin-3-yl)-4-oxo-3,4-dihydrobenzo[d][1,2,3]triazin-6-yl)azetidine-3-carbonyl)piperidin-4-yl)prop-1-yn-1-yl)benzamide], the “Degradation (1 μM treated in LNCaP, % AR remaining)” value at Androgen receptor (AR) is recorded as 9%. For the same compound, half-maximal cytotoxicity with VCaP cells [2] (CC50) was put at 31.9 nM.

Source of the values: US20240018123A1, “COMPOUND FOR INHIBITING OR DISINTEGRATING ANDROGEN RECEPTOR, AND PHARMACEUTICAL USE THEREOF” (KOREA RESEARCH INSTITUTE OF CHEMICAL TECHNOLOGY, priority 2020, published 2024).
